Experimental data: US20230096766A1, “AMINO ACID HAVING FUNCTIONAL GROUP CAPABLE OF INTERMOLECULAR HYDROGEN BONDING, PEPTIDE COMPOUND CONTAINING SAME AND METHOD FOR PRODUCTION THEREOF” (Chugai Seiyaku Kabushiki Kaisha, priority 2018, published 2023)
*1 amine or outer side, *2 acyl side, *3 side chain or, on linkers, in order; H or OH if unused. Where a SMILES comes first, the peptide text is derived from it. Bridges are numbered along the chain shown (N, C = ends). [ ]: non-standard residue; d: D form. The star is where a group is joined. ξ: configuration not given here. X12 = O=C([C@H](CCCC(O)C(F)(F)F)N[*:1])[*:2]; X13 = O=C(C1CCCCC1)[C@H](CC(=O)[*:2])N[*:1]; Pro(4,4-F2)ψ(CH2) = FC1(F)CN[C@H](C*)C1; NMeF = CN[C@@H](Cc1ccccc1)C(=O)O; NMeGABA = CN(CCCC(=O)[*:2])[*:1]; CH2CH(OH)CF3 = OC(C*)C(F)(F)F; NMeL = CN[C@@H](CC(C)C)C(=O)O; NMeAbu = CC[C@H](NC)C(=O)O; Piperidide = C1CCN(*)CC1; NBuGly = CCCCNCC(=O)O; ξV = CC(C)C(N)C(=O)O; Sar = CNCC(=O)O; tBu = CC(C)(C)*

Test: Membrane permeability test of cyclic peptides (Caco-2, modified/improved method of WO 2018/124162)
Conditions: human, Caco-2, Caco-2 (membrane permeability)
[1] = Table 6, cyclic peptides containing Ser(1-CF3-EtOH) (C) or Hnl(7-F3-6-OH) (D)
[2] = Table 10, cyclic peptides containing Ser(S-4-F2-Pyrro-Me) (G) or Nva(2-R-4-F2-Pyrro) (H)

`CC(C)C[C@H]1C(=O)N[C@@H](COC(C)(C)C)C(=O)N(C)[C@@H](Cc2ccccc2)C(=O)N(C)[C@@H](CC(C)C)C(=O)N[C@H](C(=O)N2CCCCC2)CC(=O)N[C@H](C(C)C)C(=O)N(C)[C@@H](Cc2ccccc2)C(=O)N[C@@H](COCC(O)C(F)(F)F)C(=O)N(C)[C@@H](CC(C)C)C(=O)NC(C(C)C)C(=O)N(C)CC(=O)N1C` (stereo partly drawn) [Compound C11] ([dV][NMeF]S(CH2CH(OH)CF3)[NMeL][ξV][Sar][NMeL]S(tBu)[NMeF][NMeL]D-Piperidide; lactam N-11) gave a Papp [1] of 0.23 ×10⁻⁶ cm/s.
With `CC[C@H](C)[C@@H]1NC(=O)[C@H](CC(C)C)N(C)C(=O)[C@H](COC(C)(C)C)NC(=O)[C@H](Cc2ccccc2)N(C)C(=O)[C@H](Cc2ccccc2)N(C)C(=O)[C@H](COCC(O)C(F)(F)F)NC(=O)[C@H](CC)N(C)C(=O)CCCN(C)C(=O)C[C@@H](C(=O)N2CCCCC2)NC(=O)[C@H](CC(C)C)N(C)C(=O)[C@H](CC(C)C)N(C)C1=O` (stereo partly drawn) [Compound C13] ([NMeGABA][NMeAbu]S(CH2CH(OH)CF3)[NMeF][NMeF]S(tBu)[NMeL]I[NMeL][NMeL]D-Piperidide; lactam N-11) the Papp [1] was 0.26 ×10⁻⁶ cm/s.
Compound `CC(C)C[C@H]1C(=O)N[C@@H](COC(C)(C)C)C(=O)N(C)[C@@H](Cc2ccccc2)C(=O)N(C)[C@@H](CC(C)C)C(=O)N[C@H](C(=O)C2CCCCC2)CC(=O)N[C@H](C(C)C)C(=O)N(C)[C@@H](Cc2ccccc2)C(=O)N[C@@H](COCC(O)C(F)(F)F)C(=O)N(C)[C@@H](CC(C)C)C(=O)N[C@@H](C(C)C)C(=O)N(C)CC(=O)N1C` (stereo partly drawn) [Compound D11] (cyclo([NMeF][NMeL][X13][dV][NMeF]S(CH2CH(OH)CF3)[NMeL]V[Sar][NMeL]S(tBu))) has a Papp [1] of 0.21 ×10⁻⁶ cm/s.
`CC(C)C[C@H]1C(=O)N[C@@H](C(C)C)C(=O)N(C)[C@@H](Cc2ccccc2)C(=O)N(C)[C@@H](Cc2ccccc2)C(=O)N[C@@H](COC(C)(C)C)C(=O)N(C)[C@@H](CC(C)C)C(=O)N[C@@H](CCCC(O)C(F)(F)F)C(=O)N(C)[C@@H](CC(C)C)C(=O)N(C)[C@@H](CC(C)C)C(=O)N[C@H](C(=O)N2CCCCC2)CC(=O)N(C)CCCC(=O)N1C` (stereo partly drawn) [Compound D12] ([NMeGABA][NMeL]V[NMeF][NMeF]S(tBu)[NMeL][X12][NMeL][NMeL]D-Piperidide; lactam N-11) gave a Papp [1] of 0.13 ×10⁻⁶ cm/s.
In the case of `CC[C@H](C)[C@@H]1NC(=O)[C@H](CC(C)C)N(C)C(=O)[C@H](COC(C)(C)C)NC(=O)[C@H](Cc2ccccc2)N(C)C(=O)[C@H](Cc2ccccc2)N(C)C(=O)[C@H](CCCC(O)C(F)(F)F)NC(=O)[C@H](CC)N(C)C(=O)CCCN(C)C(=O)C[C@@H](C(=O)N2CCCCC2)NC(=O)[C@H](CC(C)C)N(C)C(=O)[C@H](CC(C)C)N(C)C1=O` (stereo partly drawn) [Compound D13] ([NMeGABA][NMeAbu][X12][NMeF][NMeF]S(tBu)[NMeL]I[NMeL][NMeL]D-Piperidide; lactam N-11), the Papp [1] is reported as 0.14 ×10⁻⁶ cm/s.
Compound `CCCCN1CC(=O)N(C)[C@@H](CC(C)C)C(=O)N[C@@H](COC[C@@H]2CC(F)(F)CN2)C(=O)N(C)[C@@H](CC(C)C)C(=O)N(C)[C@@H](CC(C)C)C(=O)N[C@H](C(=O)N2CCCCC2)CC(=O)N[C@H](C(C)C)C(=O)N(C)[C@@H](Cc2ccccc2)C(=O)N[C@@H](CC(C)C)C(=O)N(C)[C@@H](CC)C(=O)N[C@@H]([C@@H](C)O)C1=O` [Compound G01] ([dV][NMeF]L[NMeAbu]T[NBuGly][NMeL]S(Pro(4,4-F2)ψ(CH2))[NMeL][NMeL]D-Piperidide; lactam N-11) has a Papp [2] of 0.53 ×10⁻⁶ cm/s.
`CCCCN1CC(=O)N(C)[C@@H](CC)C(=O)N[C@@H](COC[C@@H]2CC(F)(F)CN2)C(=O)N(C)[C@@H](Cc2ccccc2)C(=O)N(C)[C@@H](CC)C(=O)N[C@H](C(=O)N2CCCCC2)CC(=O)N[C@H](CC(C)C)C(=O)N(C)[C@@H](CC(C)C)C(=O)N[C@@H](C(C)C)C(=O)N(C)[C@@H](CC(C)C)C(=O)N[C@@H]([C@@H](C)O)C1=O` [Compound G02] ([dL][NMeL]V[NMeL]T[NBuGly][NMeAbu]S(Pro(4,4-F2)ψ(CH2))[NMeF][NMeAbu]D-Piperidide; lactam N-11) showed a Papp [2] of 0.4 ×10⁻⁶ cm/s.
Work on `CC[C@H](C)[C@@H]1NC(=O)[C@H](CC(C)C)N(C)C(=O)CCCN(C)C(=O)C[C@@H](C(=O)N2CCCCC2)NC(=O)[C@H](CC(C)C)N(C)C(=O)[C@H](CC(C)C)N(C)C(=O)[C@H]([C@@H](C)O)NC(=O)[C@H](CC(C)C)N(C)C(=O)[C@H](COC[C@@H]2CC(F)(F)CN2)NC(=O)[C@H](CC(C)C)N(C)C(=O)[C@H](Cc2ccccc2)N(C)C1=O` [Compound G03] ([NMeGABA][NMeL]I[NMeF][NMeL]S(Pro(4,4-F2)ψ(CH2))[NMeL]T[NMeL][NMeL]D-Piperidide; lactam N-11) yielded a Papp [2] of 0.23 ×10⁻⁶ cm/s.
With `CCCCN1CC(=O)N(C)[C@@H](CC(C)C)C(=O)N[C@H](C(=O)N2CCCCC2)CC(=O)N(C)[C@@H](CC)C(=O)N[C@@H](CC(C)C)C(=O)N(C)[C@@H](CC(C)C)C(=O)N(C)[C@@H](Cc2ccccc2)C(=O)N[C@@H](COC[C@@H]2CC(F)(F)CN2)C(=O)N(C)[C@@H](CC)C(=O)N(C)[C@@H](CC(C)C)C(=O)N[C@@H]([C@@H](C)O)C1=O` [Compound G04] ([NMeAbu]L[NMeL][NMeF]S(Pro(4,4-F2)ψ(CH2))[NMeAbu][NMeL]T[NBuGly][NMeL]D-Piperidide; lactam N-11) the Papp [2] was 1.8 ×10⁻⁶ cm/s.
